In patent US10273240B2, “Cortistatin analogues, syntheses, and uses thereof” (President and Fellows of Harvard College, priority 2015, dated 2019):
Read-outs that look alike come from different tables or passages of the source.

Key:
Type in all cases: cell-based
[1] = test system: SKNO-1; experiment: Cell growth assay, SKNO-1; conditions: Homo sapiens
Description: (§1) All media was supplemented with 100 U/mL penicillin and 100 μg/mL streptomycin. Human cancer cell lines were grown in the following media: MV4; 11, K562, MOLM-14 in RPMI-1640, 10% FBS; SKNO-1 in RPMI-1640, 10% FBS, and 10 ng/mL GM-CSF; MV4;11 and K562 were from ATCC. SKNO-1 was from DSMZ.
(§2) Cell Culture. All media was supplemented with 100 U/mL penicillin and 100 μg/mL streptomycin. Human cancer cell lines were grown in the following media: MV4; 11, RS4; 11, K562, HEL, MOLM-14, MEG-01 in RPMI-1640, 10% FBS; SET-2 in RPMI-1640, 20% FBS; UKE-1 in RPMI-1640, 10% FBS, 10% horse serum and 1 μM hydrocortisone; SKNO-1 and TF-1 in RPMI-1640, 10% FBS, and 10 or 2 ng/mL GM-CSF, respectively; HaCaT in DMEM, 10% FBS; and HCT116 in McCoy's 5 A, 10% FBS (proliferation assay) or DMEM, 10% FBS (gene expression study). HepG2, MV4;11, RS4;11, MEG-01, TF-1, HCT116 and K562 were from ATCC. SKNO-1 was from DSMZ. HEL, UKE-1, and SET-2 were provided by Ross L. Levine and HaCaT, MV4;11-mCLP, and MOLM-14 by Van Wilson, Andrew L. Kung, and Scott A. Armstrong, respectively. MOLM-14 cells were authenticated by STR profiling and flow cytometry and all cell lines were routinely tested and found to be negative for mycoplasma.

[2] = test system: MOLM-14; experiment: Cell growth assay, MOLM-14; conditions: Homo sapiens
Description: as §1, §2

[3] = test system: MV4;11; experiment: Cell growth assay, MV4;11; conditions: Homo sapiens
Description: as §1, §2

[4] = test system: K562; experiment: Cell growth assay, K562; conditions: Homo sapiens
Description: as §1, §2

[5] = test system: RS4;11; experiment: Cell growth assay, RS4;11; conditions: Homo sapiens, RS4-11, 72 h, read-out: Mean GI50 (nM), RS4;11
Description: as §2

[6] = test system: SET-2; experiment: Cell growth assay, SET-2; conditions: Homo sapiens, SET-2, 72 h, read-out: Mean GI50 (nM), SET-2
Description: as §2

[7] = test system: MEG-01; experiment: Cell growth assay, MEG-01; conditions: Homo sapiens, MEG-01, 72 h, read-out: Mean GI50 (nM), MEG-01
Description: as §2

[8] = test system: TF-1; experiment: Cell growth assay, TF-1; conditions: Homo sapiens, TF-1, 72 h, read-out: Mean GI50 (nM), TF-1
Description: as §2

[9] = test system: HEL; experiment: Cell growth assay, HEL; conditions: Homo sapiens, 72 h, read-out: Mean GI50 (nM), HEL
Description: as §2

Row | GI50 ([1]; SKNO-1, 240 h, read-out: SKNO-1 GI50 day 10) [nM] | GI50 ([2]; MOLM-14, 240 h, read-out: MOLM14 GI50 day 10) [nM] | GI50 ([3]; MV4-11, 240 h, read-out: MV4;11 GI50 day 10) [nM] | GI50 ([4]; K562, 240 h, read-out: K562 GI50 day 10) [nM] | SMILES | GI50 ([1]; SKNO-1, 72 h, I-BET151, after 3 days, read-out: Mean GI50 (nM), SKNO-1) [nM] | GI50 ([2]; MOLM-14, 72 h, I-BET151, after 3 days, read-out: Mean GI50 (nM), MOLM-14) [nM] | GI50 ([3]; MV4-11, 72 h, I-BET151, after 3 days, read-out: Mean GI50 (nM), MV4;11) [nM] | GI50 ([4]; K562, 72 h, I-BET151, after 3 days, read-out: Mean GI50 (nM), K562) [nM] | GI50 [5] [nM] | GI50 [6] [nM] | GI50 [7] [nM] | GI50 [8] [nM] | GI50 [9] [nM]
1 | – | – | – | – | COc1cc2c(cc1-c1c(C)noc1C)ncc1[nH]c(=O)n([C@H](C)c3ccccn3)c12 [I-BET151] | 50 | 18 | 20 | 750 | 200 | 245 | 375 | 163 | 200
2 | 0.6 | 17.5 | 3.75 | > 1000 | C[C@]12CC=C3C=C4CCC(=O)NC[C@]45CC[C@]3(O5)[C@@H]1CC[C@@H]2c1ccc2ccncc2c1 [Compound 15B] | – | – | – | – | – | – | – | – | –
